We go through 13 molecules from ChEMBL document CHEMBL1201862, “PubChem BioAssay data set” (2004).

Some test systems named below: HCT-15; MDA-MB-435; UACC-62; SF-268; EKVX; HCT-116; SF-295; LOX IMVI; CCRF-CEM; K562; SK-MEL-5; HL-60; OVCAR-8; NCI-H23; CAKI-1; BT-549; OVCAR-3; U-251; NCI/ADR-RES.
Test in all cases: NCI anticancer screen, dose series, 48 h

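Cells were grown in 96-well plates and exposed to each compound for 48 hours at five concentrations; endpoints were interpolated linearly between bracketing concentrations, or set to the highest concentration if not reached. The concentration for 50% growth inhibition is given as GI50.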 Active and inactive are the calls of the source. Rule as the data show it: active = GI50 up to about 1.1 µM and inactive = higher. Bounds are passed on as bounds.

Take `CC(C)OP(=O)(OC(C)C)c1ccc2c(c1)OCCOCCOCCOCCO2`: the GI50 with HCT-15 was over 100 µM; with MDA-MB-435 it was > 100 µM (inactive); in the assay with UACC-62 it was > 100 µM (inactive); with SF-268, > 100 µM (inactive); in the assay on EKVX, > 100 µM (inactive); with HCT-116, > 100 µM (inactive). Further, the GI50 in the assay on SF-295 was > 100 µM (inactive); with LOX IMVI, 95.7 µM (inactive); with CCRF-CEM, > 100 µM (inactive); in the assay on K562, > 100 µM (inactive); with SK-MEL-5, > 100 µM (inactive); in the assay with HL-60 it was > 100 µM (inactive). Besides, the GI50 in the assay on OVCAR-8, in the assay with NCI-H23, in the assay with CAKI-1 and with BT-549 was > 100 µM (inactive) throughout.

Regarding `COc1cccc(C2SC(=N)Nc3c2c(C)nn3C(=O)Cc2ccccc2)c1` (stereo not drawn), the GI50 is over 100 µM in the assay with HCT-15; > 100 µM (inactive) in the assay on MDA-MB-435; > 100 µM (inactive) in the assay with UACC-62; > 100 µM (inactive) with SF-268; > 100 µM (inactive) in the assay with EKVX; > 100 µM (inactive) with HCT-116. For the same molecule, the GI50 in the assay with SF-295, in the assay with LOX IMVI, with CCRF-CEM, in the assay on K562, with SK-MEL-5 and in the assay on HL-60 was > 100 µM (inactive) each time. Besides, the GI50 in the assay on OVCAR-8, in the assay with NCI-H23, with CAKI-1 and in the assay on BT-549 was > 100 µM (inactive) each time.

As to `Cn1cc(C(=O)c2ccccc2)ccc1=O`, the GI50 was over 100 µM in the assay with HCT-15; > 100 µM (inactive) in the assay with UACC-62; > 100 µM (inactive) in the assay with SF-268; > 100 µM (inactive) with EKVX; > 100 µM (inactive) in the assay with HCT-116; > 100 µM (inactive) in the assay on SF-295. Besides, the GI50 in the assay with LOX IMVI, in the assay on CCRF-CEM, in the assay on K562, in the assay with SK-MEL-5, with HL-60 and in the assay on OVCAR-3 was > 100 µM (inactive) throughout. For the same molecule, the GI50 in the assay with OVCAR-8, in the assay on NCI-H23, with U-251 and with CAKI-1 was > 100 µM (inactive) throughout.

For `OC1CSCCSCCCSCCSC1`, the GI50 in the assay on HCT-15 was over 100 µM; with MDA-MB-435 it was > 100 µM (inactive); in the assay with UACC-62, > 100 µM (inactive); with SF-268, > 100 µM (inactive); with EKVX, > 100 µM (inactive); with HCT-116, > 100 µM (inactive). Moreover, the GI50 in the assay with SF-295 was > 100 µM (inactive); with LOX IMVI, > 100 µM (inactive); with K562, > 100 µM (inactive); with SK-MEL-5, > 100 µM (inactive); in the assay with HL-60, 50.2 µM (inactive); in the assay with OVCAR-3, > 100 µM (inactive). For the same molecule, the GI50 in the assay on OVCAR-8, in the assay with NCI-H23, with U-251, in the assay on CAKI-1 and with BT-549 was > 100 µM (inactive) in each case.

On to `CCCCOC(=O)NC(Nc1ccc(S(N)(=O)=O)cc1)(C(F)(F)F)C(F)(F)F`, for which the GI50 is over 100 µM with HCT-15; > 100 µM (inactive) with MDA-MB-435; > 100 µM (inactive) with UACC-62; > 100 µM (inactive) in the assay with SF-268; > 100 µM (inactive) in the assay with EKVX; > 100 µM (inactive) with HCT-116. Moreover, the GI50 with LOX IMVI, with CCRF-CEM, in the assay on K562, in the assay on HL-60, in the assay on OVCAR-3 and in the assay on NCI-H23 was > 100 µM (inactive) throughout. Further, the GI50 with U-251 and with BT-549 was > 100 µM (inactive) in each case.

On to `O=Cc1cccc2ccc3ccccc3c12`, for which the GI50 in the assay on HCT-15 is 11.1 µM; in the assay on MDA-MB-435, 18.4 µM (inactive); with UACC-62, 28.1 µM (inactive); with SF-268, 11.5 µM (inactive); with HCT-116, 9.18 µM (inactive); in the assay on SF-295 it was 17.1 µM (inactive). The GI50 in the assay on LOX IMVI was 11.3 µM (inactive); in the assay on SK-MEL-5, 16.9 µM (inactive); in the assay on NCI/ADR-RES it was 8.45 µM (inactive); in the assay with OVCAR-3, 12.9 µM (inactive); in the assay with OVCAR-8, 24.2 µM (inactive); in the assay with NCI-H23, 25.1 µM (inactive). For the same molecule, the GI50 is 5.93 µM (inactive) in the assay on U-251, 16.1 µM (inactive) with CAKI-1 and 30.5 µM (inactive) with BT-549.

As to `OCc1ccccc1C1CSCSC1`, the GI50 in the assay on HCT-15 was over 100 µM; with UACC-62 it was > 100 µM (inactive); with SF-268 it was > 100 µM (inactive); with HCT-116, > 100 µM (inactive); in the assay with SF-295, > 100 µM (inactive); in the assay with LOX IMVI, > 100 µM (inactive). Further, the GI50 in the assay on CCRF-CEM, in the assay with K562, in the assay with SK-MEL-5, in the assay with HL-60, in the assay with OVCAR-3 and in the assay with OVCAR-8 was > 100 µM (inactive) each time. In addition, the GI50 with U-251 is > 100 µM (inactive).

With `N#CCC(=O)N/N=C1/C(=O)N(c2ccc(Cl)cc2)C(=O)C(=O)C1c1nc2ccccc2s1` (stereo not drawn), the GI50 in the assay with HCT-15 was over 100 µM; in the assay with UACC-62 it was 60.3 µM (inactive); with SF-268 it was 55.5 µM (inactive); with EKVX it was 89.3 µM (inactive); in the assay on HCT-116 it was 53.7 µM (inactive); in the assay on SF-295, > 100 µM (inactive). In addition, the GI50 is 38.2 µM (inactive) with LOX IMVI; > 100 µM (inactive) with SK-MEL-5; > 100 µM (inactive) in the assay with OVCAR-3; 95.9 µM (inactive) with OVCAR-8; > 100 µM (inactive) in the assay on NCI-H23; > 100 µM (inactive) in the assay with U-251. In addition, the GI50 in the assay on CAKI-1 is > 100 µM (inactive).

On to `O=C(Cc1ccccc1)NN1C(=O)/C(=C\c2ccc(O)cc2)S/C1=N\c1ccccc1`, for which the GI50 in the assay on HCT-15 was over 100 µM; in the assay on MDA-MB-435, > 100 µM (inactive); in the assay on UACC-62, > 100 µM (inactive); in the assay with SF-268, > 100 µM (inactive); in the assay with EKVX, > 100 µM (inactive); with HCT-116, > 100 µM (inactive). Further, the GI50 in the assay with SF-295, in the assay on CCRF-CEM, in the assay on K562, in the assay on SK-MEL-5, in the assay on NCI/ADR-RES and in the assay on HL-60 was > 100 µM (inactive) each time. Moreover, the GI50 in the assay with OVCAR-3, with OVCAR-8, in the assay with NCI-H23, with U-251 and with BT-549 was > 100 µM (inactive) throughout.

With `OC(c1ccoc1)c1cc2ccccc2s1` (stereo not drawn), the GI50 is over 10 µM with HCT-15; > 10 µM (inactive) in the assay with MDA-MB-435; > 10 µM (inactive) with UACC-62; > 10 µM (inactive) in the assay on SF-268; > 10 µM (inactive) in the assay on EKVX; > 10 µM (inactive) in the assay on HCT-116. Besides, the GI50 in the assay on SF-295, in the assay with LOX IMVI, with CCRF-CEM, in the assay with K562, in the assay with SK-MEL-5 and in the assay with NCI/ADR-RES was > 10 µM (inactive) throughout. Besides, the GI50 in the assay on HL-60, in the assay on OVCAR-3, in the assay on OVCAR-8, in the assay on NCI-H23, in the assay with U-251 and with CAKI-1 was > 10 µM (inactive) throughout.

For `CC(=O)N1OC(C)CC1Nc1ccc(Br)cc1` (stereo not drawn), the GI50 was over 100 µM in the assay on HCT-15; 0.577 µM (active) in the assay on MDA-MB-435; 88.3 µM (inactive) in the assay with UACC-62; > 100 µM (inactive) in the assay with SF-268; > 100 µM (inactive) with EKVX; 4.03 µM (inactive) in the assay on HCT-116. Also, the GI50 is > 100 µM (inactive) with SF-295; 0.452 µM (active) with CCRF-CEM; 0.345 µM (active) with K562; 6.31 µM (inactive) in the assay with SK-MEL-5; > 100 µM (inactive) in the assay on NCI/ADR-RES; 1.95 µM (inactive) with HL-60. The GI50 with OVCAR-3 was 82.4 µM (inactive); with OVCAR-8, > 100 µM (inactive); with NCI-H23, > 100 µM (inactive); in the assay with U-251, 1.99 µM (inactive); with BT-549 it was 65.3 µM (inactive).

Consider `Cc1ccc(-c2c(C#N)c(N)nc3c2CCS(=O)(=O)c2ccccc2-3)cc1`, for which the GI50 was over 100 µM with HCT-15; > 100 µM (inactive) in the assay on MDA-MB-435; 57.3 µM (inactive) in the assay on UACC-62; 83.4 µM (inactive) with SF-268; > 100 µM (inactive) with HCT-116; > 100 µM (inactive) with LOX IMVI. The GI50 in the assay with K562 was > 100 µM (inactive); in the assay on SK-MEL-5, 66.7 µM (inactive); in the assay on NCI/ADR-RES it was 85.9 µM (inactive); with OVCAR-8, 41 µM (inactive); in the assay with NCI-H23, > 100 µM (inactive); in the assay with U-251, 68.2 µM (inactive). Besides, the GI50 with CAKI-1 was > 100 µM (inactive); in the assay with BT-549, 95.3 µM (inactive).

As to `COc1ccc(N2C(=O)c3c4c(c5c([nH]c6ncccc65)c3C2=O)CCC(C(C)(C)C)C4)cc1` (stereo not drawn), the GI50 with HCT-15 was over 100 µM; with MDA-MB-435 it was > 100 µM (inactive); with UACC-62, 30.3 µM (inactive); with SF-268, 72.6 µM (inactive); with EKVX, > 100 µM (inactive); with HCT-116, > 100 µM (inactive). Besides, the GI50 in the assay with SF-295 is 45.6 µM (inactive); in the assay on CCRF-CEM, > 100 µM (inactive); in the assay with K562, > 10 µM (inactive); in the assay on SK-MEL-5 it was > 100 µM (inactive); in the assay with NCI/ADR-RES, > 100 µM (inactive); in the assay on HL-60 it was > 100 µM (inactive). Besides, the GI50 in the assay on OVCAR-3 is > 100 µM (inactive); in the assay with OVCAR-8, > 100 µM (inactive); in the assay on NCI-H23, 67 µM (inactive); with U-251, 31 µM (inactive); with BT-549, 84.9 µM (inactive).
